Data on eight compounds can be found in ChEMBL document CHEMBL1154173, “L-proline-catalysed facile green protocol for the synthesis and antimycobacterial evaluation of [1,4]-thiazines” (2009).

In brackets after ≈: the same amount, converted by molar mass.

As a reminder, the MIC is the smallest concentration in the dilution series that meets the test's criterion for growth inhibition. A lower MIC goes with inhibition by little substance.

The experiment has as its system Mycobacterium tuberculosis. The experiment in a line: Antimycobacterial activity against multidrug resistant Mycobacterium tuberculosis by agar dilution method. It is filed as functional.
`CCOC(=O)C1C(c2ccc(C)cc2)NC(c2ccc(C)cc2)C(C(=O)c2ccc(Cl)cc2)S1(=O)=O` (racemic) displayed an MIC of 1.48 µM (≈ 0.779 µg/mL).
On to `CCOC(=O)C1C(c2ccc(OC)cc2)NC(c2ccc(OC)cc2)C(C(=O)c2ccc(Cl)cc2)S1(=O)=O` (racemic), for which the MIC was found to be 1.4 µM (≈ 0.781 µg/mL). This MIC and that of the compound before are within 1.5-fold of each other.
In the case of `CCOC(=O)C1C(c2ccc(Cl)cc2)NC(c2ccc(Cl)cc2)C(C(=O)c2ccc(Cl)cc2)S1(=O)=O` (racemic), the MIC turned out to be 5.52 µM (≈ 3.13 µg/mL).
Then `CCOC(=O)C1C(c2ccc([N+](=O)[O-])cc2)NC(c2ccc([N+](=O)[O-])cc2)C(C(=O)c2ccc(Cl)cc2)S1(=O)=O` (racemic), with 0.68 µM (≈ 0.4 µg/mL); and `CC[C@@H](CO)NCCN[C@@H](CC)CO` [ETHAMBUTOL], with 61.2 µM (≈ 12.5 µg/mL); and `NNC(=O)c1ccncc1` [ISONIAZID], with 45.6 µM (≈ 6.25 µg/mL).
Under `NC(=O)c1cnccn1` [PYRAZINAMIDE] stands 406 µM (≈ 50 µg/mL); under `CO[C@H]1/C=C/O[C@@]2(C)Oc3c(C)c(O)c4c(O)c(c(/C=N/N5CCN(C)CC5)c(O)c4c3C2=O)NC(=O)/C(C)=C\C=C\[C@H](C)[C@H](O)[C@@H](C)[C@@H](O)[C@@H](C)[C@H](OC(C)=O)[C@@H]1C` [RIFAMPIN], 3.8 µM (≈ 3.13 µg/mL).
